The experiment deals with ROCK2 (Homo sapiens (Human), UniProt O75116). Briefly: biochemical.
Sequence of ROCK2 (O75116 whole entry, species assumed): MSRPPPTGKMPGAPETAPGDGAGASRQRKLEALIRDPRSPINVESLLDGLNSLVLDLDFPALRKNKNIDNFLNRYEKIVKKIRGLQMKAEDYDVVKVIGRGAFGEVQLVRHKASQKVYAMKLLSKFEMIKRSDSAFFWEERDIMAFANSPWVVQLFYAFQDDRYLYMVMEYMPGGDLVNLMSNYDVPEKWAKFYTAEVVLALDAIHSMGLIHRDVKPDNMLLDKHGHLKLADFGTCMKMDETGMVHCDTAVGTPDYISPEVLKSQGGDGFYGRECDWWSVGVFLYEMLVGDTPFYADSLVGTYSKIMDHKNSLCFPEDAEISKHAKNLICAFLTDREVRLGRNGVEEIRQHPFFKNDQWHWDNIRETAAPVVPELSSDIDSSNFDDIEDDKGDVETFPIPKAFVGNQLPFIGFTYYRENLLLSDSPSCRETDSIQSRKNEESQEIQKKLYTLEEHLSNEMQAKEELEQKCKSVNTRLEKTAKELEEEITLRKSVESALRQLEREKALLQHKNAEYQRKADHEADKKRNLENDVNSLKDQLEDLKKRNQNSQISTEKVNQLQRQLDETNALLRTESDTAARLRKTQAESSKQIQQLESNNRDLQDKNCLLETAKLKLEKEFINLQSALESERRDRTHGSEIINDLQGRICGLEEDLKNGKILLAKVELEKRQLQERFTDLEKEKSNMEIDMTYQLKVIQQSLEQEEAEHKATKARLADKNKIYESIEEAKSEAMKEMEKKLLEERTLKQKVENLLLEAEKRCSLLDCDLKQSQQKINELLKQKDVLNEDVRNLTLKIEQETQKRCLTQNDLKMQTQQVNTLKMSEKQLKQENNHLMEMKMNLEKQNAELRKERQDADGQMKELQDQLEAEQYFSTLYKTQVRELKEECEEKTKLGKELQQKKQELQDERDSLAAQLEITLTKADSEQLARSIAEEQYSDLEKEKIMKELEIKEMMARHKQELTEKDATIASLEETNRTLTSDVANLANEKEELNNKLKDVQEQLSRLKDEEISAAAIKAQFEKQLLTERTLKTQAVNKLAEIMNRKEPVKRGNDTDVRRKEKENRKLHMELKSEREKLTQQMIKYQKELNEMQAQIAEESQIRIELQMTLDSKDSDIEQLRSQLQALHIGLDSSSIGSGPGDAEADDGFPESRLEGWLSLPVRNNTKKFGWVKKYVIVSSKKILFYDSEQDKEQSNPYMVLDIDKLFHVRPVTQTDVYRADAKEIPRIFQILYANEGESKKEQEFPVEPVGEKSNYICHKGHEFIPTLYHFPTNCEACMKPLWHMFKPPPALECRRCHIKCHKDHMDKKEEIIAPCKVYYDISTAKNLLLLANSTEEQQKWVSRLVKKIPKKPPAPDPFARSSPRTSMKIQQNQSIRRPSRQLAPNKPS
Turning to `COc1c(F)cccc1NC1CCN(c2ccc(-c3cn[nH]c3)cc2)C1=O` (single isomer, unassigned) [Example 16, 1-(4-(1H-pyrazol-4-yl)phenyl)-3-((3-fluoro-2-methoxyphenyl)amino)pyrrolidin-2-one], the IC50 lay within 100 to 2200 nM. Next, `COc1cc(NC2CCN(c3ccc(-c4cn[nH]c4)cc3)C2=O)ccc1F` (single isomer, unassigned) [Example 17, 1-(4-(1H-pyrazol-4-yl)phenyl)-3-((4-fluoro-3-methoxyphenyl)amino)pyrrolidin-2-one]: 10 to 100 nM. For `COc1cc(NC2CCN(c3ccc(-c4cn[nH]c4)cc3)C2=O)ccc1F` (single isomer, unassigned) [Example 18, 1-(4-(1H-pyrazol-4-yl)phenyl)-3-((4-fluoro-3-methoxyphenyl)amino)pyrrolidin-2-one] the value was < 10 nM; for `COc1ccc(NC2CCN(c3ccc(-c4cn[nH]c4)cc3)C2=O)c(F)c1` (single isomer, unassigned) [Example 19, 1-(4-(1H-pyrazol-4-yl)phenyl)-3-((2-fluoro-4-methoxyphenyl)amino)pyrrolidin-2-one], 100 to 2200 nM. The molecule `COc1cc(NC2CCN(c3ccc(-c4cn[nH]c4)cc3)C2=O)cc(OC)c1` (single isomer, unassigned) [Example 21, 1-(4-(1H-pyrazol-4-yl)phenyl)-3-((3,5-dimethoxyphenyl)amino)pyrrolidin-2-one] registered a half-maximal inhibitory concentration (IC50) of 100 to 2200 nM. Turning to `O=C1C(Nc2cccc(F)c2F)CCN1c1ccc(-c2cn[nH]c2)cc1` (single isomer, unassigned) [Example 23, 1-(4-(1H-pyrazol-4-yl)phenyl)-3-((2,3-difluorophenyl)amino)pyrrolidin-2-one], the concentration for half-maximal inhibition (IC50) is < 10 nM. Next, `O=C1C(Nc2ccc(F)cc2F)CCN1c1ccc(-c2cn[nH]c2)cc1` (single isomer, unassigned) [Example 25, 1-(4-(1H-pyrazol-4-yl)phenyl)-3-((2,4-difluorophenyl)amino)pyrrolidin-2-one]: 10 to 100 nM. For `COc1cc(F)cc(NC2CCN(c3ccc(-c4cn[nH]c4)cc3)C2=O)c1` (single isomer, unassigned) [Example 26, 1-(4-(1H-pyrazol-4-yl)phenyl)-3-((3-fluoro-5-methoxyphenyl)amino)pyrrolidin-2-one] the value was < 10 nM. For `COc1cccc(NC2CCN(c3ccc(-c4cn[nH]c4)cc3)C2=O)c1` (single isomer, unassigned) [Example 28, 1-(4-(1H-pyrazol-4-yl)phenyl)-3-((3-methoxyphenyl)amino)pyrrolidin-2-one] the value was < 10 nM; for `COc1cccc(N(C)C2CCN(c3ccc(-c4cn[nH]c4)cc3)C2=O)c1` (single isomer, unassigned) [Example 30, 1-(4-(1H-pyrazol-4-yl)phenyl)-3-((3-methoxyphenyl)(methyl)amino)pyrrolidin-2-one], 10 to 100 nM; for `COc1cccc(N(C)C2CCN(c3ccc(-c4cn[nH]c4)cc3)C2=O)c1` (single isomer, unassigned) [Example 31, 1-(4-(1H-pyrazol-4-yl)phenyl)-3-((3-methoxyphenyl)(methyl)amino)pyrrolidin-2-one], 100 to 2200 nM. For the molecule `COc1c(F)cccc1NC1CCN(c2ccc(-c3cn[nH]c3)c(OC(F)F)c2)C1=O` (single isomer, unassigned) [Example 32, 1-(3-(difluoromethoxy)-4-(1H-pyrazol-4-yl)phenyl)-3-((3-fluoro-2-methoxyphenyl)amino)pyrrolidin-2-one], the 50% inhibitory concentration (IC50) is 100 to 2200 nM. Molecule `COc1c(F)cccc1NC1CCN(c2ccc(-c3cn[nH]c3)c(OC(F)F)c2)C1=O` (single isomer, unassigned) [Example 33, 1-(3-(difluoromethoxy)-4-(1H-pyrazol-4-yl)phenyl)-3-((3-fluoro-2-methoxyphenl)amino)pyrrolidin-2-one] showed a concentration for half-maximal inhibition (IC50) of 10 to 100 nM.

For the molecule `CCOc1cc(N2CCC(Nc3cccc(OC)c3)C2=O)ccc1-c1cn[nH]c1` (single isomer, unassigned) [Example 34, 1-(3-ethoxy-4-(1H-pyrazol-4-yl)phenyl)-3-((3-methoxyphenyl)amino)pyrrolidin-2-one], the half-inhibitory concentration (IC50) was < 10 nM. For `CCOc1cc(N2CCC(Nc3cccc(OC)c3)C2=O)ccc1-c1cn[nH]c1` (single isomer, unassigned) [Example 35, 1-(3-ethoxy-4-(1H-pyrazol-4-yl)phenyl)-3-((3-methoxyphenyl)amino)pyrrolidin-2-one] the value was 10 to 100 nM; for `CCOc1cc(N2CCC(Nc3cc(F)cc(OC)c3)C2=O)ccc1-c1cn[nH]c1` (single isomer, unassigned) [Example 36, 1-(3-ethoxy-4-(1H-pyrazol-4-yl)phenyl)-3-((3-fluoro-5-methoxyphenyl)amino)pyrrolidin-2-one], < 10 nM. Take `CCOc1cc(N2CCC(Nc3cc(F)cc(OC)c3)C2=O)ccc1-c1cn[nH]c1` (single isomer, unassigned) [Example 37, 1-(3-ethoxy-4-(1H-pyrazol-4-yl)phenyl)-3-((3-fluoro-5-methoxyphenyl)amino)pyrrolidin-2-one]: the 50% inhibitory concentration (IC50) was 100 to 2200 nM.

In turn, `CCOc1cc(N2CCC(Nc3ccc(F)c(OC)c3)C2=O)ccc1-c1cn[nH]c1` (single isomer, unassigned) [Example 38, 1-(3-ethoxy-4-(1H-pyrazol-4-yl)phenyl)-3-((4-fluoro-3-methoxyphenyl)amino)pyrrolidin-2-one] yielded an IC50 of 10 to 100 nM. For `CCOc1cc(N2CCC(Nc3cc(OC)ccc3F)C2=O)ccc1-c1cn[nH]c1` (single isomer, unassigned) [Example 40, 1-(3-ethoxy-4-(1H-pyrazol-4-yl)phenyl)-3-((2-fluoro-5-methoxyphenyl)amino)pyrrolidin-2-one] the value was 100 to 2200 nM; for `COc1ccc2c(c1)CCN2C1CCN(c2ccc(-c3cn[nH]c3)cc2)C1=O` (single isomer, unassigned) [Example 42, 1-(4-(1H-pyrazol-4-yl)phenyl)-3-(5-methoxyindolin-1-yl)pyrrolidin-2-one], 10 to 100 nM. `O=C1C(Nc2ccccc2)CCN1c1ccc(-c2cn[nH]c2)c(F)c1` (single isomer, unassigned) [Example 43, 1-(3-fluoro-4-(1H-pyrazol-4-yl)phenyl)-3-(phenylamino)pyrrolidin-2-one]: the half-inhibitory concentration (IC50) is < 10 nM.

With `COc1cccc(NC2CCN(c3ccc(-c4cn[nH]c4)c(F)c3)C2=O)c1` (single isomer, unassigned) [Example 45, 1-(3-fluoro-4-(1H-pyrazol-4-yl)phenyl)-3-((3-methoxyphenyl)amino)pyrrolidin-2-one], the concentration for half-maximal inhibition (IC50) is < 10 nM. Next, `O=C1C(Nc2cccc(F)c2)CCN1c1ccc(-c2cn[nH]c2)c(F)c1` (single isomer, unassigned) [Example 47, 1-(3-fluoro-4-(1H-pyrazol-4-yl)phenyl)-3-((3-fluorophenyl)amino)pyrrolidin-2-one]: < 10 nM; `O=C1C(Nc2cccc(F)c2)CCN1c1ccc(-c2cn[nH]c2)c(F)c1` (single isomer, unassigned) [Example 48, 1-(3-fluoro-4-(1H-pyrazol-4-yl)phenyl)-3-((3-fluorophenyl)amino)pyrrolidin-2-one]: 10 to 100 nM. As to `COc1cc(F)cc(NC2CCN(c3ccc(-c4cn[nH]c4)c(F)c3)C2=O)c1` (single isomer, unassigned) [Example 49, 1-(3-fluoro-4-(1H-pyrazol-4-yl)phenyl)-3-((3-fluoro-5-methoxyphenyl)amino)pyrrolidin-2-one], the IC50 is < 10 nM. For `COc1cccc2c1N(C1CCN(c3ccc(-c4cn[nH]c4)cc3)C1=O)CC2` (single isomer, unassigned) [Example 51, l-(4-(1H-pyrazol-4-yl)phenyl)-3-(7-methoxyindolin-1-yl)pyrrolidin-2-one] the value was 10 to 100 nM; for `COc1cccc2c1N(C1CCN(c3ccc(-c4cn[nH]c4)cc3)C1=O)CC2` (single isomer, unassigned) [Example 52, 1-(4-(1H-pyrazol-4-yl)phenyl)-3-(7-methoxyindolin-1-yl)pyrrolidin-2-one], 100 to 2200 nM. Molecule `O=C1C(Nc2ccc3c(c2)OC(F)(F)O3)CCN1c1ccc(-c2cn[nH]c2)cc1` (single isomer, unassigned) [Example 53, 1-(4-(1H-pyrazol-4-yl)phenyl)-3-((2,2-difluorobenzo[d][1,3]dioxol-5-yl)amino)pyrrolidin-2-one] yielded a half-inhibitory concentration (IC50) of 100 to 2200 nM. Regarding `O=C1C(Nc2nc3ccccc3[nH]2)CCN1c1ccc(-c2cn[nH]c2)cc1` (single isomer, unassigned) [Example 55, 3-((1H-benzo[d]imidazol-2-yl)amino)-1-(4-(1H-pyrazol-4-yl)phenyl)pyrrolidin-2-one], the IC50 was 100 to 2200 nM.

In turn, `O=C1C(Nc2nc3ccccc3[nH]2)CCN1c1ccc(-c2cn[nH]c2)cc1` (single isomer, unassigned) [Example 56, 3-((1H-benzo[d]imidazol-2-yl)amino)-1-(4-(1H-pyrazol-4-yl)phenyl)pyrrolidin-2-one] registered an IC50 of 10 to 100 nM. Turning to `COc1cccc(NC2CCN(c3ccc(-c4cn[nH]c4)c(OC)c3)C2=O)c1` (single isomer, unassigned) [Example 74, 1-(3-methoxy-4-(1H-pyrazol-4-yl)phenyl)-3-((3-methoxyphenyl)amino)pyrrolidin-2-one], the IC50 is < 10 nM. In turn, `COc1cccc(NC2CCN(c3ccc(-c4ccnc(N)c4)cc3)C2=O)c1` (single isomer, unassigned) [Example 76, 1-(4-(2-aminopyridin-4-yl)phenyl)-3-((3-methoxyphenyl)amino) pyrrolidin-2-one] gave an IC50 of 100 to 2200 nM. For `COc1cccc(NC2CCN(c3ccc(-c4ccnc(N)c4)cc3)C2=O)c1` (single isomer, unassigned) [Example 77, 1-(4-(2-aminopyridin-4-yl)phenyl)-3-((3-methoxyphenyl)amino)pyrrolidin-2-one] the value was 10 to 100 nM; for `COc1cccc(NC2CCN(c3ccc(-c4ccnc(N)n4)cc3)C2=O)c1` (single isomer, unassigned) [Example 78, 1-(4-(2-aminopyrimidin-4-yl)phenyl)-3-((3-methoxyphenyl)amino)pyrrolidin-2-one], 10 to 100 nM.

(Values after US10112929B2, “Lactams as inhibitors of rock” (BRISTOL-MYERS SQUIBB COMPANY, priority 2015, dated 2018).)
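Note: rho kinase enzyme reaction halted with EDTA, phospho- and non-phospho peptide separated for read-out, kinase activity inhibition derived across a dose-response series, DMSO under 2%.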
